Laboratory results from ChEMBL document CHEMBL1268921, “New pyridazinone derivatives with vasorelaxant and platelet antiaggregatory activities” (Bioorg Med Chem Lett, 2010).
Activity calls are given as the source filed them. No cut-off for these calls is given here.

Experiments:
Aorta = test: Vasorelaxant activity against noradrenaline-induced contraction in intact rat aortic rings; assay type: functional, tissue-based
[1] = Antiplatelet activity against human platelet assessed as inhibition of collagen-induced platelet aggregation; assay type: functional, cell-based
Platelet = test: Antiplatelet activity against human platelet assessed as inhibition of thrombin-induced platelet aggregation at <100 uM; assay type: functional, cell-based
[2] = biological target: Prostaglandin G/H synthase 1 (Homo sapiens) (UniProt P23219); test: Inhibition of COX1
Sequence of Prostaglandin G/H synthase 1 (Homo sapiens) (P23219 whole entry): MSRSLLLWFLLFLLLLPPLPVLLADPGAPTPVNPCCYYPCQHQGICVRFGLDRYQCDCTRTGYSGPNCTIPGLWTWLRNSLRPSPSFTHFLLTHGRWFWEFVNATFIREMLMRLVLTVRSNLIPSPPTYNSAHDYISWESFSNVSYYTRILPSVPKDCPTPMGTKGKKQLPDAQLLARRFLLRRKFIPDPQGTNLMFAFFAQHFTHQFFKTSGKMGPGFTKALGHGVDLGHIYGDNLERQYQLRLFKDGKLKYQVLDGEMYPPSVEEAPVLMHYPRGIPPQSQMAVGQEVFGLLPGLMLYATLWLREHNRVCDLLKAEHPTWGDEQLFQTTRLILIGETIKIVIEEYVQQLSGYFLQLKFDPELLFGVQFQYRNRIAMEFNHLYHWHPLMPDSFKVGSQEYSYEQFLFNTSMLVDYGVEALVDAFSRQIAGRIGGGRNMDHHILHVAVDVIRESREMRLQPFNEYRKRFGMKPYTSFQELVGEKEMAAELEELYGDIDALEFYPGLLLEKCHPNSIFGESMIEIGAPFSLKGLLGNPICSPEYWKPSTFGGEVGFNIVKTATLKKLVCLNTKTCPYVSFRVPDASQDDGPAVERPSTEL

IC50 (Aorta) [µM] | IC50 [1] [µM] | inhibition [2] | Structure (SMILES) | Activity (Platelet)
35.3 | 8 | – | O=c1ccc(COCc2ccccc2)nn1Cc1ccccc1 | Active
> 100 | > 100 | – | O=c1ccc(CCO)nn1Cc1ccccc1 | Active
> 100 | > 100 | – | Cn1nc(CCOCc2ccccc2)ccc1=O | Active
> 100 | > 100 | – | O=c1ccc(CO)nn1Cc1ccccc1 | Active
32.3 | 4.11 | – | O=c1ccc(CCOCc2ccccc2)nn1Cc1ccccc1 | Active
0.122 | 38.5 | – | Cc1[nH]c(=O)c(C#N)cc1-c1ccncc1 [MILRINONE] | –
> 100 | 4.7 | – | O=c1ccc(CCCO)nn1Cc1ccccc1 | Active
76.4 | 50.7 | – | Cn1nc(CCCOCc2ccccc2)ccc1=O | Active
> 100 | 69.6 | – | Cn1nc(CO)ccc1=O | Active
> 100 | 2.34 | – | Cn1nc(CCCO[Si](c2ccccc2)(c2ccccc2)C(C)(C)C)ccc1=O | Active
56.2 | 3.87 | – | CC(C)(C)[Si](OCCc1ccc(=O)[nH]n1)(c1ccccc1)c1ccccc1 | Active
> 100 | 60.4 | – | Cn1nc(CCO)ccc1=O | Active
> 100 | > 100 | – | O=c1ccc(CCCO)n[nH]1 | Active
78.2 | 2.13 | – | CC(C)(C)[Si](OCCCc1ccc(=O)[nH]n1)(c1ccccc1)c1ccccc1 | Active
47 | 3.17 | Active | Cn1nc(CCO[Si](c2ccccc2)(c2ccccc2)C(C)(C)C)ccc1=O | Active
> 100 | 64.3 | – | O=c1ccc(CCO)n[nH]1 | Active
32.5 | 5.9 | – | O=c1ccc(CCCOCc2ccccc2)nn1Cc1ccccc1 | Active
> 100 | 4.8 | – | CC(C)(C)[Si](OCCc1ccc(=O)n(Cc2ccccc2)n1)(c1ccccc1)c1ccccc1 | Active
> 100 | 4.6 | – | CC(C)(C)[Si](OCc1ccc(=O)n(Cc2ccccc2)n1)(c1ccccc1)c1ccccc1 | Active
> 100 | > 100 | – | Cn1nc(COCc2ccccc2)ccc1=O | Active
62.6 | 1.8 | – | CC(C)(C)[Si](OCc1ccc(=O)[nH]n1)(c1ccccc1)c1ccccc1 | Active
> 100 | > 100 | – | Cn1nc(CCCO)ccc1=O | Active
58.4 | 4.55 | – | Cn1nc(CO[Si](c2ccccc2)(c2ccccc2)C(C)(C)C)ccc1=O | Active
> 100 | > 100 | – | O=c1ccc(CO)n[nH]1 | Active
39.9 | 3.9 | – | CC(C)(C)[Si](OCCCc1ccc(=O)n(Cc2ccccc2)n1)(c1ccccc1)c1ccccc1 | Active
